Data on six compounds can be found in publication PMC7520498, “Chemical Constituents from the Whole Plant of Cuscuta reflexa” (Natural Products and Bioprospecting, 2020).

≈ marks a conversion by molar mass, not a printed value.

Assay [1] concerns rabbit platelet aggregation induced by collagen. Kind of assay: Rabbit platelet aggregation induced by collagen. The note with it: collagen 4 μg/mL; for IC50: Oryctolagus cuniculus, Platelet, read-out: IC50 against rabbit platelet aggregation induced by collagen. It is filed as cell-based. How it is done: (§1) Compounds 1–15 and 1a were also evaluated for their inhibitory activity against rabbit platelet aggregation induced by thrombin (1 U/mL), platelet-activating factor (PAF, 0.4 μg/mL), arachidonate (AA, 0.5 mM), or collagen (4 μg/mL).
(§2) The inhibitory effects of the compounds against rabbit platelet aggregation induced by thrombin (1 U/mL), PAF (0.4 μg/mL), AA (0.5 mM), or collagen (4 μg/mL) were evaluated according to published methods.

Assay [2] relates to rabbit platelet aggregation induced by arachidonate (AA). Kind of assay: Rabbit platelet aggregation induced by arachidonate (AA). To be noted: Oryctolagus cuniculus, AA 0.5 mM. The assay is classed as cell-based. Here is the method: as §1, §2
Assay [3] has as its target T1, porcine pancreatic lipase (PPL) (Sus scrofa, UniProt P00591).
T1 sequence (P00591 1-450): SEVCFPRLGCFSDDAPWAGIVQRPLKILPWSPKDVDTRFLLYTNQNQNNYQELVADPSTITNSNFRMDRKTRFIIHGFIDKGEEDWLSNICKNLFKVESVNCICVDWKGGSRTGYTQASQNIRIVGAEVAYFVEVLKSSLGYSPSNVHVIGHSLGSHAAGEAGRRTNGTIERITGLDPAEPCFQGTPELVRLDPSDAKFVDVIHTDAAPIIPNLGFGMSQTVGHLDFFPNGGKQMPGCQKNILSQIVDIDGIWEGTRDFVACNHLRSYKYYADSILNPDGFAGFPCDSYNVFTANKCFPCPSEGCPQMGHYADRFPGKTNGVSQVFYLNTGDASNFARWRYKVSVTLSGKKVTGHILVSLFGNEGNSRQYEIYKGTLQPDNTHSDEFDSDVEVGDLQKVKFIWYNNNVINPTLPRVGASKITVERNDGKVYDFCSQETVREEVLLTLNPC
Description: In vitro porcine pancreatic lipase inhibition assay (p-NPB substrate). The assay is classed as biochemical. How it is done: For lipase inhibition tests of each compound, porcine pancreatic lipase was used. p-Nitrophenyl butyrate (p-NPB) was used as the substrate. First, 5 μL of the lipase solution (40 U/mL) in Tris–HCl buffer (100 mM Tris–HCl, 5 mM CaCl2; pH 7.0) was added to a 96-well microtiter plate. Each compound in 1 μL of DMSO and 184 μL of Tris–HCl buffer were added and mixed with the enzyme buffer to start the reaction. After incubation at 37 °C for 15 min, 10 μL of the substrate solution (10 mM p-NPB in dimethyl formamide) was added. The enzymatic reaction was carried out for 15 min at 37 °C. The hydrolysis of p-NPB to p-nitrophenol was monitored at 400 nm using a spectrophotometer.

For `Cc1cc(OC2OC(COC(=O)C=Cc3ccc(O)cc3)C(O)C(O)C2O)cc(=O)o1` (centres unmarked) [Compound 1, cuscutaroside A], the concentration for half-maximal inhibition (IC50) (commonly the concentration that inhibits the measured activity by half) in assay [1] came out at 291 ± 47.9 µg/mL (≈ 671 µM).

`CC(=O)Oc1ccc(/C=C/C(=O)OC[C@H]2O[C@@H](Oc3cc(C)oc(=O)c3)[C@H](OC(C)=O)[C@@H](OC(C)=O)[C@@H]2OC(C)=O)cc1` [Compound 1a]: the IC50 in assay [2] (read-out: IC50 against rabbit platelet aggregation induced by AA) turned out to be 72.6 ± 10.5 µg/mL (≈ 120 µM); in assay [1], 63.8 ± 4.4 µg/mL (≈ 106 µM).

“7-oxo-β-sitosterol 3-O-β-D-glucopyranoside [Compound 4]” displayed a PPL inhibition in assay [3] (at a concentration of 100 μg/mL) of 12 ± 2%.

Take `CCC(CCC(C)C1CCC2C3C(OC)C=C4CC(OC5OC(CO)C(O)C(O)C5O)CCC4(C)C3CCC12C)C(C)C` (stereo not drawn) [Compound 3, 7β-methoxy-β-sitosterol 3-O-β-glucopyranoside]: the concentration for half-maximal inhibition (IC50) in assay [3] (porcine pancreatic lipase, p-NPB substrate, read-out: PPL inhibitory activity IC50 (converted)) is 111 µM.

As for `CC(=O)Oc1ccccc1C(=O)O` [aspirin, reference compound], testing at 40 µg/mL in assay [2] (at 40 μg/mL) gave an inhibition of 88.1 ± 1.1%. Also, the IC50 in assay [1] was determined as 33.3 ± 1.3 µg/mL (≈ 185 µM).

Take scrophenoside B [Compound 8]: in assay [1], the “IC50 against rabbit platelet aggregation induced by collagen” value stood at 180.5 ± 6.7 µg/mL.
